Data published in patent US20240092835A1, “NOVEL PEPTIDES CAPABLE OF ALTERING NK CELL ACTIVITY” (Massachusetts Institute of Technology, priority 2022, published 2024).
Entries after “also recorded” stand apart in the source; their conditions may differ. Where no end group is shown, it is not given here.

Legend:
HLA-E = biological target: T1, HLA-E (Homo sapiens, UniProt P13747); assay: HLA-E surface stabilization assay with RMA-S/HLA-E cells; type: cell-based; conditions: 30 μM peptide, 16 hours; for HLA-E surface expression stability (GeoMFI): anti-HLA-E antibody
T1 construct: expressed in transfected cells; host or cells: RMA-S/HLA-E cells (antigen processing-defective lymphoma cell line)
Procedure: HLA-E surface expression was assessed by measuring geometric mean fluorescence intensity (GeoMFI) in RMA-S cells following immunofluorescence staining with an anti-HLA-E antibody (Table 14). Increased GeoMFI was indicative of increased HLA-E surface expression stability following novel peptide exposures (FIG. 3).

CD94/NKG2C = CD94/NKG2C (Homo sapiens, UniProt P26717+Q13241); assay: Steady-state surface plasmon resonance of peptide-HLA-E complex with CD94/NKG2C; type: binding; conditions: for Binding of peptide-HLA-E complexes to CD94/NKG2C normalized to a theoretical Rmax: steady-state SPR
Procedure: Binding affinity of novel peptides linked to HLA-E was determined using surface plasmon resonance (SPR), a methodology used to study protein-protein interactions (Tables 15-19). The peptide-HLA-E complex (generated as a single chain trimer) was immobilized on the sensor chip surface and CD94/NKG2A or CD94/NKG2C were flowed over. Steady-state surface plasmon resonance experiments were performed with a Biacore T200 instrument. CD94/NKG2x in HBS-EP+ buffer was injected as analyte in a concentration range of 0.1 μM to 102.4 μM and flow rate of 10 μL/min at 25° C. Data was fit with Prism 9.4 (GraphPad Software Inc; San Diego CA) to a “one site, specific binding” model. Series S CM5 chips were coupled to neutravidin and utilized. Biotinylated pMHC was immobilized at approximately 400 RU. KD values calculated by Biacore software are reported. Rmax, fit values were calculated by Biacore software. Rmax, theoretical values were calculated using the analyte/ligand mass ratio (0.66) multiplied by the amount of ligand coupled to the chip.

Sequence of CD94/NKG2C (P26717 94-231 limits assumed): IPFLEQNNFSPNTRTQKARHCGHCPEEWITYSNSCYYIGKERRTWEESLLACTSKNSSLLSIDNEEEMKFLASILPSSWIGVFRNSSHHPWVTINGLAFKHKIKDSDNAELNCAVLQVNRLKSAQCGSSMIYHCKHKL
Sequence of CD94/NKG2C (Q13241 32-179 limits assumed): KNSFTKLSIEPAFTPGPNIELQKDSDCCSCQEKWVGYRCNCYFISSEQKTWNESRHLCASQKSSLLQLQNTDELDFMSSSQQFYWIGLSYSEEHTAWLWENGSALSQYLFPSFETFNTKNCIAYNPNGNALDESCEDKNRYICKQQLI
T1 sequence (P13747 22-358): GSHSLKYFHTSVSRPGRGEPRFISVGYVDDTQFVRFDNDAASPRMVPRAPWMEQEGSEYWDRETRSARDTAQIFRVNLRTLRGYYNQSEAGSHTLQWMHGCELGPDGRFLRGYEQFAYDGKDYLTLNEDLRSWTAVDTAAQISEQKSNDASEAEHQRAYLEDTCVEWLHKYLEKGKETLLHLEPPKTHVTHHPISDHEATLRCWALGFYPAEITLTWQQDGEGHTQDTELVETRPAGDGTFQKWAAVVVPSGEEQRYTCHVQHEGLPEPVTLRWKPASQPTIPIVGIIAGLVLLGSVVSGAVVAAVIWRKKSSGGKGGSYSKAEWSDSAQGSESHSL
T1 sequence (P61769 21-119 partner): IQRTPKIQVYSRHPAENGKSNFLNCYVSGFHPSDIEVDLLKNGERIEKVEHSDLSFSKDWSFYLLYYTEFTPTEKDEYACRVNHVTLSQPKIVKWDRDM

## VNPGRSLFL [human5, VNPGRSLFL]
HLA-E; Trial 1
  HLA-E surface expression stability (GeoMFI): 569 GeoMFI
HLA-E; Trial 2
  HLA-E surface expression stability (GeoMFI): 509 GeoMFI
HLA-E; Trial 3
  HLA-E surface expression stability (GeoMFI): 566 GeoMFI
HLA-E; Trial 4
  HLA-E surface expression stability (GeoMFI): 750 GeoMFI
HLA-E; listed as BFAR263-271
  HLA-E surface expression stabilization strength (in words): closest to the experimental negative control (DMSO); also recorded: lowest
CD94/NKG2C; CD94/NKG2C concentration 0 μM
  binding of peptide-HLA-E complex to CD94/NKG2C normalized to a fitted Rmax: −0.001
CD94/NKG2C; CD94/NKG2C concentration 0.1 μM
  binding of peptide-HLA-E complex to CD94/NKG2C normalized to a fitted Rmax: 0.064
CD94/NKG2C; CD94/NKG2C concentration 0.2 μM
  binding of peptide-HLA-E complex to CD94/NKG2C normalized to a fitted Rmax: 0.119
CD94/NKG2C; CD94/NKG2C concentration 0.4 μM
  binding of peptide-HLA-E complex to CD94/NKG2C normalized to a fitted Rmax: 0.205
CD94/NKG2C; CD94/NKG2C concentration 0.8 μM
  binding of peptide-HLA-E complex to CD94/NKG2C normalized to a fitted Rmax: 0.333
CD94/NKG2C; CD94/NKG2C concentration 1.6 μM
  binding of peptide-HLA-E complex to CD94/NKG2C normalized to a fitted Rmax: 0.488
CD94/NKG2C; CD94/NKG2C concentration 3.2 μM
  binding of peptide-HLA-E complex to CD94/NKG2C normalized to a fitted Rmax: 0.650
CD94/NKG2C; CD94/NKG2C concentration 6.4 μM
  binding of peptide-HLA-E complex to CD94/NKG2C normalized to a fitted Rmax: 0.795
CD94/NKG2C; CD94/NKG2C concentration 12.8 μM
  binding of peptide-HLA-E complex to CD94/NKG2C normalized to a fitted Rmax: 0.902
CD94/NKG2C; CD94/NKG2C concentration 25.6 μM
  binding of peptide-HLA-E complex to CD94/NKG2C normalized to a fitted Rmax: 0.971
CD94/NKG2C; CD94/NKG2C concentration 51.2 μM
  binding of peptide-HLA-E complex to CD94/NKG2C normalized to a fitted Rmax: 0.990
CD94/NKG2C; CD94/NKG2C concentration 102.4 μM
  binding of peptide-HLA-E complex to CD94/NKG2C normalized to a fitted Rmax: 0.983
CD94/NKG2C; CD94/NKG2C analyte concentration 0 μM
  Binding of peptide-HLA-E complexes to CD94/NKG2C normalized to a theoretical Rmax: 0.000
CD94/NKG2C; CD94/NKG2C analyte concentration 0.1 μM
  Binding of peptide-HLA-E complexes to CD94/NKG2C normalized to a theoretical Rmax: 0.024
CD94/NKG2C; CD94/NKG2C analyte concentration 0.2 μM
  Binding of peptide-HLA-E complexes to CD94/NKG2C normalized to a theoretical Rmax: 0.044
CD94/NKG2C; CD94/NKG2C analyte concentration 0.4 μM
  Binding of peptide-HLA-E complexes to CD94/NKG2C normalized to a theoretical Rmax: 0.076
CD94/NKG2C; CD94/NKG2C analyte concentration 0.8 μM
  Binding of peptide-HLA-E complexes to CD94/NKG2C normalized to a theoretical Rmax: 0.123
CD94/NKG2C; CD94/NKG2C analyte concentration 1.6 μM
  Binding of peptide-HLA-E complexes to CD94/NKG2C normalized to a theoretical Rmax: 0.180
CD94/NKG2C; CD94/NKG2C analyte concentration 3.2 μM
  Binding of peptide-HLA-E complexes to CD94/NKG2C normalized to a theoretical Rmax: 0.240
CD94/NKG2C; CD94/NKG2C analyte concentration 6.4 μM
  Binding of peptide-HLA-E complexes to CD94/NKG2C normalized to a theoretical Rmax: 0.294
CD94/NKG2C; CD94/NKG2C analyte concentration 12.8 μM
  Binding of peptide-HLA-E complexes to CD94/NKG2C normalized to a theoretical Rmax: 0.333
CD94/NKG2C; CD94/NKG2C analyte concentration 25.6 μM
  Binding of peptide-HLA-E complexes to CD94/NKG2C normalized to a theoretical Rmax: 0.359
CD94/NKG2C; CD94/NKG2C analyte concentration 51.2 μM
  Binding of peptide-HLA-E complexes to CD94/NKG2C normalized to a theoretical Rmax: 0.366
CD94/NKG2C; CD94/NKG2C analyte concentration 102.4 μM
  Binding of peptide-HLA-E complexes to CD94/NKG2C normalized to a theoretical Rmax: 0.363
